From PubChem BioAssay AID1963874 (Molecular Pharmacology Branch, DTP, NCI, 2024)
pIC50: −log10 of the molar value.

Tested on: 253994-281-T-J1-PDC KRAS-mutant spheroids with HUVEC/MSC, viability
Test: Anticancer human tumor 253994-281-T-J1-PDC patient-derived colorectal carcinoma cell line growth inhibition [KRAS2]
Conditions: for pIC50: curve of first compound; for viability, T/C: stronger effect = lower value
Method in brief: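 KRAS-mutant tumor cells were grown as spheroids with HUVEC endothelial cells and human MSCs as stroma. Targeted agents were tested alone and with KRAS pathway inhibitors. Doses started at or near clinical Cmax, or 10 microM, descending half-log.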

[1] = second compound 0.1 µM, first compound 0.0316 µM
[2] = second compound 0.1 µM, first compound 0.1 µM
[3] = second compound 0.1 µM, first compound 0.316 µM
[4] = second compound 0.1 µM, first compound 1 µM
[5] = second compound 0.1 µM, first compound 3.16 µM
[6] = second compound 0.1 µM, first compound 10 µM
[7] = second compound 0.316 µM, first compound 0.0316 µM
[8] = second compound 0.316 µM, first compound 0.1 µM
[9] = second compound 0.316 µM, first compound 0.316 µM
[10] = second compound 0.316 µM, first compound 1 µM
[11] = second compound 0.316 µM, first compound 3.16 µM
[12] = second compound 0.316 µM, first compound 10 µM
[13] = second compound 1 µM, first compound 0.0316 µM
[14] = second compound 1 µM, first compound 0.1 µM
[15] = second compound 1 µM, first compound 0.316 µM
[16] = second compound 1 µM, first compound 1 µM
[17] = second compound 1 µM, first compound 3.16 µM
[18] = second compound 1 µM, first compound 10 µM
[19] = second compound 3.16 µM, first compound 0.0316 µM
[20] = second compound 3.16 µM, first compound 0.1 µM
[21] = second compound 3.16 µM, first compound 0.316 µM
[22] = second compound 3.16 µM, first compound 1 µM
[23] = second compound 3.16 µM, first compound 3.16 µM
[24] = second compound 3.16 µM, first compound 10 µM
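Also: spheroids exposed to agents for seven days before readout.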
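For viability, T/C in this document: percent of DMSO vehicle control viability.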

Structure (SMILES) | pIC50 (second compound 0.1 µM) | pIC50 (second compound 0.316 µM) | pIC50 (second compound 1 µM) | pIC50 (second compound 3.16 µM) | viability, T/C [1] [%] | viability, T/C [2] [%] | viability, T/C [3] [%] | viability, T/C [4] [%] | viability, T/C [5] [%] | viability, T/C [6] [%] | viability, T/C [7] [%] | viability, T/C [8] [%] | viability, T/C [9] [%] | viability, T/C [10] [%] | viability, T/C [11] [%] | viability, T/C [12] [%] | viability, T/C [13] [%] | viability, T/C [14] [%] | viability, T/C [15] [%] | viability, T/C [16] [%] | also measured
CC(C)NCC(C(=O)N1CCN(c2ncnc3c2C(C)CC3O)CC1)c1ccc(Cl)cc1 (stereo not given) + C=CC(=O)N1CCN(c2nc(OCC3CCCN3C)nc3c2CCN(c2cccc4cccc(C)c24)C3)CC1CC#N | < 5.00 | < 5.00 | < 5.00 | > 7.50 | 101 | 98.8 | 105 | 91 | 94.5 | 100 | 84 | 94.2 | 92.8 | 84.9 | 77.8 | 85.2 | 85.6 | 101 | 95.1 | 90.3 | pIC50 (second compound 0.0316 µM): < 5.00; viability, T/C (second compound 0.0316 µM, first compound 0.0316 µM): 104%; viability, T/C (second compound 0.0316 µM, first compound 0.1 µM): 105%; viability, T/C (second compound 0.0316 µM, first compound 0.316 µM): 99.7%; viability, T/C (second compound 0.0316 µM, first compound 1 µM): 94.7%; viability, T/C (second compound 0.0316 µM, first compound 3.16 µM): 96.3%; viability, T/C (second compound 0.0316 µM, first compound 10 µM): 92.7%; viability, T/C [17]: 93.6%; viability, T/C [18]: 88.7%; viability, T/C [19]: 2.67%; viability, T/C [20]: 11.2%; viability, T/C [21]: 14.7%; viability, T/C [22]: 12.3%; viability, T/C [23]: 4.04%; viability, T/C [24]: 0.49%
COc1cc(Nc2ncc3c(n2)-c2ccc(Cl)cc2C(c2c(F)cccc2OC)=NC3)ccc1C(=O)O + C=CC(=O)N1CCN(c2nc(=O)n(-c3c(C)ccnc3C(C)C)c3nc(-c4c(O)cccc4F)c(F)cc23)C(C)C1 | < 5.00 | < 5.00 | < 5.00 | < 5.00 | 87.4 | 48.2 | 57 | 62.5 | 70.2 | 73.6 | 96 | 53 | 45.6 | 65.8 | 68.9 | 67.7 | 87.2 | 57.4 | 47.2 | 56.9 | pIC50 (second compound 10 µM): < 5.00; viability, T/C [17]: 72.2%; viability, T/C [18]: 76.2%; viability, T/C [19]: 89.2%; viability, T/C [20]: 61.8%; viability, T/C [21]: 48.5%; viability, T/C [22]: 59.1%; viability, T/C [23]: 70.8%; viability, T/C [24]: 82.4%; viability, T/C (second compound 10 µM, first compound 0.0316 µM): 91.9%; viability, T/C (second compound 10 µM, first compound 0.1 µM): 55.1%; viability, T/C (second compound 10 µM, first compound 0.316 µM): 52.1%; viability, T/C (second compound 10 µM, first compound 1 µM): 69.6%; viability, T/C (second compound 10 µM, first compound 3.16 µM): 62.1%; viability, T/C (second compound 10 µM, first compound 10 µM): 67%
